This note sets out measurements from patent US4910296A, “Medicaments containing alpha 1 thymosin fragments and having an immunostimulant action, and fragments of alpha 1 thymosin” (priority 1980, dated 1990).

Assay [1] relates to human peripheral lymphocytes. The class given is cell-based. The following applies: for stimulation (+) / inhibition (-) of mixed lymphocyte culture: 1 μg fragment per ml, not blocked, culture without addition = 0%; for Stimulation (%) of allogenic mixed culture: 1 microgram thymosin α1 per ml. From the text: (§1) The immunological test methods used were the E-rosette test according to Wara, Ammann et al. (N.Y. Acad. Sci. 249 (1975) 308 and N. Engl. J. Med. 292 (1975) 70) and the method of mixed lymphocyte culture, both methods involving additional inhibition of cellular RNS polymerase by alpha-amanitin. The E-rosette test is based on the fact that the percentage of E-rosette forming cells in peripheral human blood is a measure of the content of fully mature T-cells, which form with sheep's red blood cells characteristic aggregates which can be counted under the microscope.
The test in mixed lymophocyte cultures is based on the fact that T-cells are made to proliferate by stimulation with allogenic antigens. For the performance of the test, the lymphocytes of donor A ("responder") are incubated with those of donor B ("stimulator") for 4 to 5 days. Then ^3 H-thymidin is added and the rate of proliferation is measured on the basis of the increasing radioactivity of the cell culture due to the installation of the radioactive material. Since both populations A and B might be made to proliferate, resulting in an unclear effect, population B is blocked with mitomycin C in all metabolical activities. This test is routinely used before organ transplants to determine the immunological compatibility of donor and receiver tissues.

Assay [2] concerns peripheral human lymphocytes. The class given is cell-based. The conditions noted are these: for E-rosette number (%): cells blocked with α-amanitin = 0%, normal level without any addition = 100%, at optimum concentration; for Optimum concentr.: concentration giving the stated E-rosette number; for Relative number of E-rosettes (%): after inhibition with α-amanitin.
Text: as §1
For the performance of the E-rosette test, peripheral human lymphocytes are isolated by a gradient centrifugation. Their RNS polymerase is blocked by alpha-amanitin. […] This value is taken as 100% in a relative numerical scale, and after the Alpha-amanitin blockage it is taken to be 0%; see Table XII.

Read-outs that look alike come from different tables or passages of the source. Residues, ends and D or L forms follow the SMILES beside them. No end group written: not given here.

In the case of KDAAVD [Ia], the “stimulation (+) / inhibition (-) of mixed lymphocyte culture” value (shortened to “stimulation (+) / inhibition (-)”) in assay [1] (cell pair AB) is listed as -8%; in assay [1] (cell pair BA), -15%; in assay [1] (cell pair CD), -73%; in assay [1] (cell pair DC) it was -31%. Further, in assay [2], the “E-rosette number (%)” value is given as 93%. In assay [2], this compound had an Optimum concentr. of 16 μm.

For KEVVEEAEN [VI], the “stimulation (+) / inhibition (-)” value is reported as “+153%” in assay [1] (cell pair AB) and “+57%” in assay [1] (cell pair CD). Moreover, the “E-rosette number (%)” value in assay [2] is on record as 16%. Moreover, in assay [2], the Optimum concentr. is 10 μm.

On to “thymosin α1 (SDAAVDTSSEITTKDLKEKKEVVEEAEN; ends and bridges not checked; UniProt P06454 2-29, looked up) [Thymosin (synthetic), parent substance, totally synthetic thymosin α1, 28 amino acids, analytically pure, reference compound]”, for which the “Stimulation (%) of allogenic mixed culture” value in assay [1] (cell pair AB, culture inhibited with 1 microgram α-amanitin per ml) is recorded as “+86%”; in assay [1] (cell pair AB, culture not inhibited, stimulator cells blocked with mitomycin), “+20%”; in assay [1] (cell pair AD, culture inhibited with 1 microgram α-amanitin per ml), “+37%”; in assay [1] (cell pair AD, culture not inhibited), “+4%”; in assay [1] (cell pair BA, culture inhibited with 1 microgram α-amanitin per ml), “+47%”; in assay [1] (cell pair BA, culture not inhibited), “+27%”. The “Stimulation (%) of allogenic mixed culture” value in assay [1] (cell pair BD, culture inhibited with 1 microgram α-amanitin per ml) was “+51%”; in assay [1] (cell pair BD, culture not inhibited) it was “+45%”; in assay [1] (cell pair DA, culture inhibited with 1 microgram α-amanitin per ml) it was “+0%”; in assay [1] (cell pair DA, culture not inhibited) it was “+44%”; in assay [1] (cell pair DB, culture inhibited with 1 microgram α-amanitin per ml) it was “+1550%”; in assay [1] (cell pair DB, culture not inhibited), “+27%”. In addition, the “Relative number of E-rosettes (%)” value was found to be 39% in assay [2] (0.25 μg per culture); 100% in assay [2] (0.50 μg per culture); 64% in assay [2] (1.00 μg per culture); 57% in assay [2] (2.50 μg per culture); 33% in assay [2] (5.00 μg per culture). Further, the “E-rosette number (%)” value in assay [2] is on record as 100%. For the same compound, in assay [2], the Optimum concentr. came out at 1.6 μm.

`C[C@H](NC(=O)[C@@H](N)CCC(=O)O)C(=O)N[C@@H](CCC(=O)O)C(=O)N[C@@H](CC(N)=O)C(=O)O` [V] (H-EAEN-OH): the “stimulation (+) / inhibition (-)” value is recorded as “+223%” in assay [1] (cell pair AB), “+45%” in assay [1] (cell pair CD) and “+37%” in assay [1] (cell pair DC). For the same compound, the “E-rosette number (%)” value in assay [2] amounted to 42%. Also, in assay [2], the Optimum concentr. is 113 μm.

TKDLKEKKEVVEEAEN [VII]: in assay [2], the “E-rosette number (%)” value is recorded as 41% and the Optimum concentr. was 6 μm.

With Ac-SDAAVDTSSEIT [IX], the “stimulation (+) / inhibition (-)” value in assay [1] (cell pair AB) was -74%; in assay [1] (cell pair CD) it was -63%; in assay [1] (cell pair DC), -77%. Further, the “E-rosette number (%)” value in assay [2] came to 40%. In addition, the Optimum concentr. in assay [2] was 4 μm.

As for TSSEIT [II], the figures for the “stimulation (+) / inhibition (-)” value in assay [1] (cell pair BA), in assay [1] (cell pair CD) and in assay [1] (cell pair DC) were -18%, -53% and “+30%”, respectively. Besides, the “E-rosette number (%)” value in assay [2] was found to be 29%. The compound also returned an Optimum concentr. in assay [2] of 80 μm.
